{"source": "paper PMC2819846", "about": "(Mutation research, 2008)", "assay_type_in_all_cases": "cell-based", "key": {"Salmonella TA104": {"system": "Salmonella TA104", "experiment": "Salmonella plate-incorporation mutagenicity assay, strain TA104, with S9 mix", "settings": "for Mutagenic potency, Revertants/µg ± S.E., TA104: plate-incorporation, +S9"}, "Salmonella TA98": {"system": "Salmonella TA98", "experiment": "Salmonella plate-incorporation mutagenicity assay, strain TA98, with S9 mix", "settings": "for Mutagenic potency, Revertants/µg ± S.E., TA98: plate-incorporation, +S9"}, "Salmonella TA100": {"system": "Salmonella TA100", "experiment": "Salmonella plate-incorporation mutagenicity assay, strain TA100"}, "[1]": {"settings": "TA104 +S9, Test 2, 40 µg/plate, zero-dose 276/260/270"}, "[2]": {"settings": "TA98 +S9, Test 1, 2 µg/plate, zero-dose 33/40/39"}, "[3]": {"settings": "TA98 +S9, Test 1, 5 µg/plate, zero-dose 33/40/39"}, "[4]": {"settings": "TA98 +S9, Test 1, 10 µg/plate, zero-dose 33/40/39"}, "[5]": {"settings": "TA98 +S9, Test 1, 20 µg/plate, zero-dose 33/40/39"}, "[6]": {"settings": "TA98 +S9, Test 1, 40 µg/plate, zero-dose 33/40/39"}, "[7]": {"settings": "TA98 +S9, Test 1, 80 µg/plate, zero-dose 33/40/39"}, "[8]": {"settings": "TA98 +S9, Test 2, 10 µg/plate, zero-dose 43/41/30"}, "[9]": {"settings": "TA98 +S9, Test 2, 20 µg/plate, zero-dose 43/41/30"}, "[10]": {"settings": "TA98 +S9, Test 2, 40 µg/plate, zero-dose 43/41/30"}, "[11]": {"settings": "TA98 +S9, Test 3, 10 µg/plate, zero-dose 49/50/50"}, "[12]": {"settings": "TA98 +S9, Test 3, 20 µg/plate, zero-dose 49/50/50"}, "[13]": {"settings": "TA98 +S9, Test 3, 40 µg/plate, zero-dose 49/50/50"}, "[14]": {"settings": "TA100 +S9, Test 1, 2 µg/plate, zero-dose 99/110/110"}, "[15]": {"settings": "TA100 +S9, Test 1, 5 µg/plate, zero-dose 99/110/110"}, "[16]": {"settings": "TA100 +S9, Test 1, 10 µg/plate, zero-dose 99/110/110"}, "[17]": {"settings": "TA100 +S9, Test 1, 20 µg/plate, zero-dose 99/110/110"}, "[18]": {"settings": "TA100 +S9, Test 1, 40 µg/plate, zero-dose 99/110/110"}, "[19]": {"settings": "TA100 +S9, Test 1, 80 µg/plate, zero-dose 99/110/110"}, "[20]": {"settings": "TA100 +S9, Test 2, 40 µg/plate, zero-dose 84/78/80"}, "[21]": {"settings": "TA100 +S9, Test 3, 40 µg/plate, zero-dose 127/118/125"}}}
{"smiles": "O[C@@H]1c2ccccc2-c2c(ccc3ccsc23)[C@H]1O", "note": "(racemic) [P[4,3-b]T 6,7-diol, (±)-trans-6,7-Dihydrophenanthro[4,3-b]thiophene 6,7-diol]", "values": [{"measurement": "Rev/plate", "setting": "Salmonella TA104; TA104 +S9, Test 2, 5 µg/plate, zero-dose 276/260/270", "value": "330/353"}, {"measurement": "Rev/plate", "setting": "Salmonella TA104; TA104 +S9, Test 2, 10 µg/plate, zero-dose 276/260/270", "value": "391/347"}, {"measurement": "Rev/plate", "setting": "Salmonella TA104; TA104 +S9, Test 2, 20 µg/plate, zero-dose 276/260/270", "value": "348/340"}, {"measurement": "Rev/plate", "setting": "Salmonella TA104; [1]", "value": "305/354"}, {"measurement": "Rev/plate", "setting": "Salmonella TA104; TA104 +S9, Test 3, 5 µg/plate, zero-dose 402/395/336", "value": "438/407"}, {"measurement": "Rev/plate", "setting": "Salmonella TA104; TA104 +S9, Test 3, 10 µg/plate, zero-dose 402/395/336", "value": "442/462"}, {"measurement": "Rev/plate", "setting": "Salmonella TA104; TA104 +S9, Test 3, 20 µg/plate, zero-dose 402/395/336", "value": "423/445"}, {"measurement": "Rev/plate", "setting": "Salmonella TA104; TA104 +S9, Test 3, 40 µg/plate, zero-dose 402/395/336", "value": "365/373"}, {"measurement": "Mutagenic potency, Revertants/µg ± S.E., TA104", "setting": "Salmonella TA104", "value": "9.2 ± 1.3", "unit": "rev/µg"}, {"measurement": "Rev/plate", "setting": "Salmonella TA98; [2]", "value": 34, "unit": "rev/plate"}, {"measurement": "Rev/plate", "setting": "Salmonella TA98; [3]", "value": 35, "unit": "rev/plate"}, {"measurement": "Rev/plate", "setting": "Salmonella TA98; [4]", "value": 47, "unit": "rev/plate"}, {"measurement": "Rev/plate", "setting": "Salmonella TA98; [5]", "value": 52, "unit": "rev/plate"}, {"measurement": "Rev/plate", "setting": "Salmonella TA98; [6]", "value": 39, "unit": "rev/plate"}, {"measurement": "Rev/plate", "setting": "Salmonella TA98; [7]", "value": 36, "unit": "rev/plate"}, {"measurement": "Rev/plate", "setting": "Salmonella TA98; TA98 +S9, Test 2, 5 µg/plate, zero-dose 43/41/30", "value": "28/34"}, {"measurement": "Rev/plate", "setting": "Salmonella TA98; [8]", "value": "27/28"}, {"measurement": "Rev/plate", "setting": "Salmonella TA98; [9]", "value": "38/27"}, {"measurement": "Rev/plate", "setting": "Salmonella TA98; [10]", "value": "33/27"}, {"measurement": "Rev/plate", "setting": "Salmonella TA98; TA98 +S9, Test 3, 5 µg/plate, zero-dose 49/50/50", "value": "50/53"}, {"measurement": "Rev/plate", "setting": "Salmonella TA98; [11]", "value": "43/47"}, {"measurement": "Rev/plate", "setting": "Salmonella TA98; [12]", "value": "52/47"}, {"measurement": "Rev/plate", "setting": "Salmonella TA98; [13]", "value": "48/50"}, {"measurement": "Mutagenic potency, Revertants/µg ± S.E., TA98", "setting": "Salmonella TA98", "value": "−0.2 ± 0.1", "unit": "rev/µg"}, {"measurement": "Rev/plate", "setting": "Salmonella TA100; [14]", "value": 101, "unit": "rev/plate"}, {"measurement": "Rev/plate", "setting": "Salmonella TA100; [15]", "value": 128, "unit": "rev/plate"}, {"measurement": "Rev/plate", "setting": "Salmonella TA100; [16]", "value": 126, "unit": "rev/plate"}, {"measurement": "Rev/plate", "setting": "Salmonella TA100; [17]", "value": 127, "unit": "rev/plate"}, {"measurement": "Rev/plate", "setting": "Salmonella TA100; [18]", "value": 132, "unit": "rev/plate"}, {"measurement": "Rev/plate", "setting": "Salmonella TA100; [19]", "value": 137, "unit": "rev/plate"}, {"measurement": "Rev/plate", "setting": "Salmonella TA100; TA100 +S9, Test 2, 5 µg/plate, zero-dose 84/78/80", "value": "97/98"}, {"measurement": "Rev/plate", "setting": "Salmonella TA100; TA100 +S9, Test 2, 10 µg/plate, zero-dose 84/78/80", "value": "79/88"}, {"measurement": "Rev/plate", "setting": "Salmonella TA100; TA100 +S9, Test 2, 20 µg/plate, zero-dose 84/78/80", "value": "94/113"}, {"measurement": "Rev/plate", "setting": "Salmonella TA100; [20]", "value": "119/81"}, {"measurement": "Rev/plate", "setting": "Salmonella TA100; TA100 +S9, Test 3, 5 µg/plate, zero-dose 127/118/125", "value": "125/135"}, {"measurement": "Rev/plate", "setting": "Salmonella TA100; TA100 +S9, Test 3, 10 µg/plate, zero-dose 127/118/125", "value": "132/119"}, {"measurement": "Rev/plate", "setting": "Salmonella TA100; TA100 +S9, Test 3, 20 µg/plate, zero-dose 127/118/125", "value": "134/155"}, {"measurement": "Rev/plate", "setting": "Salmonella TA100; [21]", "value": "136/128"}, {"measurement": "Mutagenic potency, Revertants/µg ± S.E., TA100", "setting": "Salmonella TA100; plate-incorporation, +S9", "value": "0.4 ± 0.1", "unit": "rev/µg"}]}
{"smiles": "O[C@@H]1c2ccccc2-c2c(ccc3ccccc23)[C@H]1O", "note": "(racemic) [B[c]P 5,6-diol, (± )-trans-5,6-Dihydrobenzo[c]phenanthrene 5,6-diol]", "values": [{"measurement": "Rev/plate", "setting": "Salmonella TA104; [1]", "value": 457, "unit": "rev/plate"}, {"measurement": "Rev/plate", "setting": "Salmonella TA104; TA104 +S9, Test 2, 80 µg/plate, zero-dose 276/260/270", "value": 506, "unit": "rev/plate"}, {"measurement": "Rev/plate", "setting": "Salmonella TA104; TA104 +S9, Test 2, 120 µg/plate, zero-dose 276/260/270", "value": 507, "unit": "rev/plate"}, {"measurement": "Mutagenic potency, Revertants/µg ± S.E., TA104", "setting": "Salmonella TA104", "value": "2.5 ± 1.2", "unit": "rev/µg"}, {"measurement": "Rev/plate", "setting": "Salmonella TA98; [2]", "value": 31, "unit": "rev/plate"}, {"measurement": "Rev/plate", "setting": "Salmonella TA98; [3]", "value": 41, "unit": "rev/plate"}, {"measurement": "Rev/plate", "setting": "Salmonella TA98; [4]", "value": 41, "unit": "rev/plate"}, {"measurement": "Rev/plate", "setting": "Salmonella TA98; [5]", "value": 29, "unit": "rev/plate"}, {"measurement": "Rev/plate", "setting": "Salmonella TA98; [6]", "value": 34, "unit": "rev/plate"}, {"measurement": "Rev/plate", "setting": "Salmonella TA98; [7]", "value": 40, "unit": "rev/plate"}, {"measurement": "Rev/plate", "setting": "Salmonella TA98; [8]", "value": "43/42"}, {"measurement": "Rev/plate", "setting": "Salmonella TA98; [9]", "value": "27/49"}, {"measurement": "Rev/plate", "setting": "Salmonella TA98; [10]", "value": "46/33"}, {"measurement": "Rev/plate", "setting": "Salmonella TA98; TA98 +S9, Test 2, 80 µg/plate, zero-dose 43/41/30", "value": "52/35"}, {"measurement": "Rev/plate", "setting": "Salmonella TA98; [11]", "value": "51/47"}, {"measurement": "Rev/plate", "setting": "Salmonella TA98; [12]", "value": "46/60"}, {"measurement": "Rev/plate", "setting": "Salmonella TA98; [13]", "value": "51/47"}, {"measurement": "Rev/plate", "setting": "Salmonella TA98; TA98 +S9, Test 3, 100 µg/plate, zero-dose 49/50/50", "value": "32/47"}, {"measurement": "Mutagenic potency, Revertants/µg ± S.E., TA98", "setting": "Salmonella TA98", "value": "−0.1 ± 0.1", "unit": "rev/µg"}, {"measurement": "Rev/plate", "setting": "Salmonella TA100; [14]", "value": 132, "unit": "rev/plate"}, {"measurement": "Rev/plate", "setting": "Salmonella TA100; [15]", "value": 151, "unit": "rev/plate"}, {"measurement": "Rev/plate", "setting": "Salmonella TA100; [16]", "value": 147, "unit": "rev/plate"}, {"measurement": "Rev/plate", "setting": "Salmonella TA100; [17]", "value": 192, "unit": "rev/plate"}, {"measurement": "Rev/plate", "setting": "Salmonella TA100; [18]", "value": 193, "unit": "rev/plate"}, {"measurement": "Rev/plate", "setting": "Salmonella TA100; [19]", "value": 263, "unit": "rev/plate"}, {"measurement": "Rev/plate", "setting": "Salmonella TA100; [20]", "value": "161/116"}, {"measurement": "Rev/plate", "setting": "Salmonella TA100; TA100 +S9, Test 2, 80 µg/plate, zero-dose 84/78/80", "value": "129/144"}, {"measurement": "Rev/plate", "setting": "Salmonella TA100; TA100 +S9, Test 2, 120 µg/plate, zero-dose 84/78/80", "value": "127/129"}, {"measurement": "Rev/plate", "setting": "Salmonella TA100; [21]", "value": "210/248"}, {"measurement": "Rev/plate", "setting": "Salmonella TA100; TA100 +S9, Test 3, 80 µg/plate, zero-dose 127/118/125", "value": "306/328"}, {"measurement": "Rev/plate", "setting": "Salmonella TA100; TA100 +S9, Test 3, 120 µg/plate, zero-dose 127/118/125", "value": "375/304"}, {"measurement": "Mutagenic potency, Revertants/µg ± S.E., TA100", "setting": "Salmonella TA100; plate-incorporation, +S9", "value": "1.6 ± 0.7", "unit": "rev/µg"}, {"measurement": "Mutagenicity call TA100", "setting": "Salmonella TA100; plate-incorporation, +S9", "value": "(+) (Called mutagenic (+) based on showing reproducible, dose-related increases in rev/plate that reached or exceeded 2-fold relative to zero-dose controls)"}]}
